In article PMC9727179, “Acorane sesquiterpenes from the deep-sea derived Penicillium bilaiae fungus with anti-neuroinflammatory effects” (Frontiers in Chemistry, 2022):
“Also recorded” adds a separate entry of the source. Read-outs that look alike come from different tables or passages of the source.

Assays:
[1] = Cell viability / cytotoxicity, MTT method; assay type: cell-based, murine; conditions: mouse, BV-2 microglial cells, BV-2 cells
Description: (§1) Murine BV-2 microglial cells were obtained from the Cell Culture Center of Institute of Basic Medical Sciences, Chinese Academy of Medical Sciences, and the cells were cultured in Dulbecco’s modified Eagle’s medium (Gibco) together with 10% (v/v) fetal bovine serum (HyClone) within a 5% CO2 incubator at 37°C. The MTT method was utilized to detect the cytotoxicity of the compound to read the absorbance at 570 nm using a microplate spectrophotometer (Thermo Scientifics, United States).

[2] = test system: NO production in LPS-induced BV-2 cells; assay: Inhibition of NO production in LPS-induced BV-2 cells (Griess method); assay type: cell-based, murine; conditions: for IC50: LPS (1 μg/ml)-induced BV-2 cells, 24 h, read-out: IC50, inhibitory effect against NO production
Description: In the presence or absence of LPS (1 μg/ml), murine BV-2 microglial cells were treated with compounds with different concentrations for 24 h. The same volume of Griess reagent was added to the supernatant of culture media. The Griess method was used to determine the NO levels under the absorbance at 540 nm measured using a microplate spectrophotometer (Thermo Scientifics, United States). Based on the established calibration curve of standard sodium nitrite solutions, the content of nitrite was calculated.

BV-2 microglial cells = assay: Cell viability / cytotoxicity, MTT method; assay type: cell-based, murine; conditions: BV-2 cells
Description: as §1

COX-2 [3] = assay: COX-2 mRNA level; assay type: cell-based
iNOS [4] = assay: Western blot of iNOS protein expression in LPS-induced BV-2 cells; assay type: cell-based, murine; conditions: LPS (1 μg/mL)-induced BV-2 cells, different concentrations, 24 h
Description: (§2) In 12-well plates, BV-2 cells were seeded to incubate with LPS (1 μg/ml) for 1 h. Each compound was incubated with BV-2 cells for 16 h. Phenylmethylsulfonyl fluoride-protease inhibitor cocktail as the cell extraction buffer was used to lyse cells. Nuclear and cytosolic extraction kits were applied for the collection of the cytosolic and nuclear extracts. Upon SDS-PAGE, proteins were purified and transferred to PVDF membranes (Millipore). After treatment with 5% (W/V) skim milk in TBST (Tris-buffered saline with 0.1% Tween 20) for 1 h, the membranes were maintained at 4°C overnight. The membrane was washed and then incubated with a secondary antibody at 20°C for 1 h. The target proteins were visualized under a chemiluminescence (ECL) detection system, and the relative optical densities were analyzed by Image Master™ 2D Elite software.
(§3) FIGURE 6 Analog 18 inhibited the expression of iNOS and COX-2 in LPS-induced BV-2 cells. Cells were stimulated by 1 μg/mL LPS with or without 18 for 24 h. (A) The protein expressions o f iNOS treated by different concentrations of 18 were determined by Western blot assay, (B) the expressions of COX-2 t reated by different concentrations of 18 were determined by Western blot assay. […]

[5] = test system: phosphorylation of JNK, ERK and p38 (MAPK signaling pathway); assay: MAPK phosphorylation in LPS-stimulated BV-2 cells; assay type: cell-based, murine; conditions: LPS-stimulated BV-2 microglial cells
Description: as §2

iNOS [6] = assay: iNOS mRNA level; assay type: cell-based
NF-κB p65 = assay: Nuclear translocation of NF-κB p65 in LPS-stimulated BV-2 cells (immunofluorescence and Western blot); assay type: cell-based, murine; conditions: LPS (1 μg/ml)-stimulated BV-2 cells, 2 μM, 3 h, immunofluorescence and WB
Description: as §2
Prior to LPS induction, BV-2 cells were pretreated by the compound (2 μM) in DMSO. Cells were seeded in glass coverslips, which were then treated with cold 4% paraformaldehyde and 0.2% Triton X-100 (in PBS). […] Images were detected using a fluorescence microscope (OLYMPUS IX83).
FIGURE 8 Effect of analog 18 on the nuclear translocation of NF-κB p65 in LPS-stimulated BV-2 cells. […] (B) BV-2 cells were stimulated with LPS (1 μg/ml) in the absence or presence of 18 (2 μM) for 3 h, and NF-kB p65 levels in the nucleus and cytoplasm were determined by Western blot. […]

COX-2 [7] = assay: Western blot of COX-2 protein expression in LPS-induced BV-2 cells; assay type: cell-based, murine; conditions: LPS (1 μg/mL)-induced BV-2 cells, different concentrations, 24 h
Description: as §2, §3

Row | Molecule | IC50 ([2]; Mus musculus, BV-2, 24 h) [µM] | CC50 [1] [µM] | further results
1 | CC1=CCC23CC1OC(C)(CO)C2C(O)CC3C (centres unmarked) [Compound 1, Bilaiaeacorenol A] | > 10 | > 100 | –
2 | CC1CC(O)C2C(C)(O)CC3CC12CC=C3CO (centres unmarked) [Compound 2, Bilaiaeacorenol B] | 6.1 ± 2.3 | > 100 | melting point: 108 to 110 °C
3 | CC1=CCC2(CC1O)C(C)CC(O)C2C(C)(O)CO (centres unmarked) [Compound 3, Bilaiaeacorenol C] | 5.3 ± 1.1 | > 100 | –
4 | CC1=CCC2(CC1O)C(C)CC(O)C2C(C)CO (centres unmarked) [Compound 4, Bilaiaeacorenol D] | 7.6 ± 1.2 | > 100 | –
5 | C=C(C)C1C(O)CC(C)C12CC=C(C)C(O)C2 (centres unmarked) [Compound 5, Bilaiaeacorenol E] | > 10 | > 100 | –
6 | C=C(C)C1C(O)CC(C)C12CC=C(C)C(O)C2 (centres unmarked) [Compound 6, Bilaiaeacorenol F] | – | – | CC50 (BV-2 microglial cells): > 100 µM; IC50 [2]: > 10 µM
7 | C=C(C)C1C(OC(C)=O)CC(C)C12CC(O)C(C)=CC2O (centres unmarked) [Compound 9, Bilaiaeacorenol I] | – | > 100 | IC50 ([2]; Mus musculus): 3.5 ± 0.1 µM
8 | C=C(C)C1C(O)CC(C)C12CCC(CO)C(O)C2 (centres unmarked) [Compound 12, Bilaiaeacorenol L] | > 10 | > 100 | –
9 | C=C(C)C1C(O)CC(C)C12CCC(CO)C(O)C2 (centres unmarked) [Compound 14, Bilaiaeacorenol N] | – | – | CC50 (BV-2 microglial cells): > 100 µM; IC50 ([2]; Mus musculus): > 10 µM
10 | C=C(C)C1C(OC(C)=O)CC(C)C12CC(O)C(C)(O)C(O)C2 (centres unmarked) [Compound 15, Bilaiaeacorenol O] | – | > 100 | IC50 ([2]; Mus musculus): 3.7 ± 0.1 µM
11 | C=C(C)C1C(O)CC(C)C12CCC(CO)C(O)C2 (centres unmarked) [Compound 16, Bilaiaeacorenol P] | – | – | CC50 (BV-2 microglial cells): > 100 µM; IC50 [2]: 7.5 ± 0.2 µM
12 | adametacorenol A [Compound 19] | – | – | CC50 (BV-2 microglial cells): > 100 µM; IC50 [2]: > 10 µM
13 | adametacorenol B [Compound 20] | – | – | CC50 (BV-2 microglial cells): > 100 µM; IC50 [2]: > 10 µM

Now from value to molecule, other results behind:

Row | IC50 ([2]; Mus musculus, BV-2, 24 h) [µM] | Molecule | CC50 [1] [µM] | further results
14 | > 10 | C=C(C)C1C(O)CC(C)C12CC=C(CO)C(O)C2 (centres unmarked) [Compound 7, Bilaiaeacorenol G] | > 100 | –
15 | > 10 | C=C(C)C1C(O)CC(C)C12CC(O)C(C)=CC2O (centres unmarked) [Compound 8, Bilaiaeacorenol H] | > 100 | –
16 | > 10 | C=C(CO)C1C(OC(C)=O)CC(C)C12CC=C(C)C(O)C2 (centres unmarked) [Compound 10, Bilaiaeacorenol J] | > 100 | –
17 | 8.7 ± 2.1 | C=C(C)C1C(O)CC(C)C12C=CC(C)(O)C(O)C2 (centres unmarked) [Compound 11, Bilaiaeacorenol K] | > 100 | –
18 | 0.53 ± 0.47 | C=C(C)C1C(OC(C)=O)CC(C)C12CCC(CO)C(O)C2 (centres unmarked) [Compound 13, Bilaiaeacorenol M] | > 100 | –
19 | > 10 | C=C(C)C1C(O)CC(C)C12CC(=O)C(C)C(O)C2 (centres unmarked) [Compound 17, Bilaiaeacorenol Q] | > 100 | –
20 | 0.5 ± 1.2 | C=C(C)C1C(O)CC(C)C12CCC(C(=O)O)C(O)C2 (centres unmarked) [Compound 18, Bilaiaeacorenol R] | > 100 | COX-2 mRNA level (COX-2 [3]): marked reductions; iNOS level (protein) (iNOS [4]): decreased; phosphorylation of JNK, ERK and p38 [5]: slightly affected; also recorded: Ineffective; reduction against NO production ([2]; LPS-induced BV-2 cells, dose-dependent manner): efficient reduction; iNOS mRNA level (iNOS [6]): marked reductions; p65 level in the nucleus (NF-κB p65): significantly downregulated; COX-2 level (protein) (COX-2 [7]): decreased
21 | 6.8 ± 4.2 | [H]/N=C(/NC)NCCC[C@H](N)C(=O)O [L-NMMA, NG-monomethyl-L-arginine, reference compound] | > 100 | –
